Key:
[1] = xn = mol fraction of the nth substance listed; details: 101 kPa, Liquid; for viscosity: Capillary tube (Ostwald / Ubbelohde) method
[2] = molar heat capacity at constant pressure; xn = mol fraction of the nth substance listed; details: 101 kPa, Liquid, Small sample (50 mg) DSC
[3] = excess molar enthalpy (molar enthalpy of mixing); xn = mol fraction of the nth substance listed; details: 101 kPa, Liquid

C[S+](C)[O-] [dimethyl sulfoxide] + CCCO
Details | excess molar enthalpy [kcal/mol] | mass density [kg/m3] | molar heat capacity at constant pressure [J/K/mol] | viscosity [mPa·s]
[1], 288.15 K, x1 = 0.0533 | – | 822.73 | – | 2.251
[1], 288.15 K, x1 = 0.0938 | – | 834.33 | – | 2.1
[1], 288.15 K, x1 = 0.1708 | – | 856.51 | – | 1.937
[1], 288.15 K, x1 = 0.2592 | – | 882.15 | – | 1.835
[1], 288.15 K, x1 = 0.346 | – | 907.54 | – | 1.81
[1], 288.15 K, x1 = 0.4294 | – | 932.12 | – | 1.819
[1], 288.15 K, x1 = 0.5115 | – | 956.49 | – | 1.864
[1], 288.15 K, x1 = 0.5981 | – | 982.38 | – | 1.927
[1], 288.15 K, x1 = 0.6853 | – | 1008.66 | – | 1.999
[1], 288.15 K, x1 = 0.7596 | – | 1031.23 | – | 2.086
[1], 288.15 K, x1 = 0.8438 | – | 1057.01 | – | 2.206
[1], 288.15 K, x1 = 0.9368 | – | 1085.71 | – | 2.348
[1], 298.15 K, x1 = 0.0554 | – | 815.18 | – | 1.799
[1], 298.15 K, x1 = 0.1366 | – | 838.3 | – | 1.635
[1], 298.15 K, x1 = 0.22 | – | 862.21 | – | 1.522
[1], 298.15 K, x1 = 0.2987 | – | 884.95 | – | 1.486
[1], 298.15 K, x1 = 0.4289 | – | 922.94 | – | 1.487
[1], 298.15 K, x1 = 0.5022 | – | 944.55 | – | 1.517
[1], 298.15 K, x1 = 0.5992 | – | 973.37 | – | 1.575
[1], 298.15 K, x1 = 0.677 | – | 996.69 | – | 1.633
[1], 298.15 K, x1 = 0.7656 | – | 1023.43 | – | 1.71
[1], 298.15 K, x1 = 0.8358 | – | 1044.81 | – | 1.786
[1], 298.15 K, x1 = 0.9181 | – | 1070.04 | – | 1.881
[1], 298.15 K, x1 = 0.9646 | – | 1084.38 | – | 1.942
[1], 308.15 K, x1 = 0.0537 | – | 806.44 | – | 1.439
[1], 308.15 K, x1 = 0.1336 | – | 828.96 | – | 1.319
[1], 308.15 K, x1 = 0.2147 | – | 852.03 | – | 1.264
[1], 308.15 K, x1 = 0.2987 | – | 876.11 | – | 1.237
[1], 308.15 K, x1 = 0.3876 | – | 901.81 | – | 1.243
[1], 308.15 K, x1 = 0.4707 | – | 926.08 | – | 1.265
[1], 308.15 K, x1 = 0.5552 | – | 950.93 | – | 1.296
[1], 308.15 K, x1 = 0.6418 | – | 976.65 | – | 1.343
[1], 308.15 K, x1 = 0.7191 | – | 999.78 | – | 1.401
[1], 308.15 K, x1 = 0.7998 | – | 1024.11 | – | 1.474
[1], 308.15 K, x1 = 0.877 | – | 1047.58 | – | 1.545
[1], 308.15 K, x1 = 0.965 | – | 1074.53 | – | 1.621
[2], 288.15 K, x1 = 0.0514 | – | – | 138.1 | –
[2], 288.15 K, x1 = 0.1127 | – | – | 137.3 | –
[2], 288.15 K, x1 = 0.2114 | – | – | 136.2 | –
[2], 288.15 K, x1 = 0.3163 | – | – | 135.5 | –
[2], 288.15 K, x1 = 0.418 | – | – | 135.3 | –
[2], 288.15 K, x1 = 0.5029 | – | – | 135.7 | –
[2], 288.15 K, x1 = 0.6216 | – | – | 136.7 | –
[2], 288.15 K, x1 = 0.7068 | – | – | 138.1 | –
[2], 288.15 K, x1 = 0.7975 | – | – | 140 | –
[2], 288.15 K, x1 = 0.8537 | – | – | 141.7 | –
[2], 288.15 K, x1 = 0.8994 | – | – | 143.1 | –
[2], 288.15 K, x1 = 0.9429 | – | – | 144.6 | –
[2], 298.15 K, x1 = 0.0514 | – | – | 143.6 | –
[2], 298.15 K, x1 = 0.1127 | – | – | 142.3 | –
[2], 298.15 K, x1 = 0.2114 | – | – | 140.3 | –
[2], 298.15 K, x1 = 0.3163 | – | – | 139.1 | –
[2], 298.15 K, x1 = 0.418 | – | – | 138.6 | –
[2], 298.15 K, x1 = 0.5029 | – | – | 138.6 | –
[2], 298.15 K, x1 = 0.6216 | – | – | 139.7 | –
[2], 298.15 K, x1 = 0.7068 | – | – | 141.1 | –
[2], 298.15 K, x1 = 0.7975 | – | – | 143.5 | –
[2], 298.15 K, x1 = 0.8537 | – | – | 145.4 | –
[2], 298.15 K, x1 = 0.8994 | – | – | 147.4 | –
[2], 298.15 K, x1 = 0.9429 | – | – | 149.4 | –
[2], 308.15 K, x1 = 0.0514 | – | – | 149.7 | –
[2], 308.15 K, x1 = 0.1127 | – | – | 147.9 | –
[2], 308.15 K, x1 = 0.2114 | – | – | 145.2 | –
[2], 308.15 K, x1 = 0.3163 | – | – | 143 | –
[2], 308.15 K, x1 = 0.418 | – | – | 141.4 | –
[2], 308.15 K, x1 = 0.5029 | – | – | 140.9 | –
[2], 308.15 K, x1 = 0.6216 | – | – | 141.2 | –
[2], 308.15 K, x1 = 0.7068 | – | – | 142.4 | –
[2], 308.15 K, x1 = 0.7975 | – | – | 144.7 | –
[2], 308.15 K, x1 = 0.8537 | – | – | 146.8 | –
[2], 308.15 K, x1 = 0.8994 | – | – | 148.7 | –
[2], 308.15 K, x1 = 0.9429 | – | – | 151 | –
[3], 288.15 K, x1 = 0.042 | 0.0514 | – | – | –
[3], 288.15 K, x1 = 0.0807 | 0.0896 | – | – | –
[3], 288.15 K, x1 = 0.1163 | 0.118 | – | – | –
[3], 288.15 K, x1 = 0.1493 | 0.139 | – | – | –
[3], 288.15 K, x1 = 0.2084 | 0.168 | – | – | –
[3], 288.15 K, x1 = 0.2598 | 0.182 | – | – | –
[3], 288.15 K, x1 = 0.3449 | 0.196 | – | – | –
[3], 288.15 K, x1 = 0.4124 | 0.196 | – | – | –
[3], 288.15 K, x1 = 0.5129 | 0.189 | – | – | –
[3], 288.15 K, x1 = 0.6124 | 0.173 | – | – | –
[3], 288.15 K, x1 = 0.6781 | 0.158 | – | – | –
[3], 288.15 K, x1 = 0.7595 | 0.128 | – | – | –
[3], 288.15 K, x1 = 0.8456 | 0.093 | – | – | –
[3], 288.15 K, x1 = 0.8634 | 0.0822 | – | – | –
[3], 288.15 K, x1 = 0.8939 | 0.0676 | – | – | –
[3], 288.15 K, x1 = 0.9267 | 0.0488 | – | – | –
[3], 288.15 K, x1 = 0.9619 | 0.0265 | – | – | –
[3], 298.15 K, x1 = 0.0422 | 0.0495 | – | – | –
[3], 298.15 K, x1 = 0.0809 | 0.0875 | – | – | –
[3], 298.15 K, x1 = 0.1166 | 0.117 | – | – | –
[3], 298.15 K, x1 = 0.1497 | 0.141 | – | – | –
[3], 298.15 K, x1 = 0.2089 | 0.167 | – | – | –
[3], 298.15 K, x1 = 0.2604 | 0.182 | – | – | –
[3], 298.15 K, x1 = 0.3456 | 0.199 | – | – | –
[3], 298.15 K, x1 = 0.4131 | 0.201 | – | – | –
[3], 298.15 K, x1 = 0.5137 | 0.194 | – | – | –
[3], 298.15 K, x1 = 0.6131 | 0.175 | – | – | –
[3], 298.15 K, x1 = 0.6787 | 0.16 | – | – | –
[3], 298.15 K, x1 = 0.7602 | 0.134 | – | – | –
[3], 298.15 K, x1 = 0.8086 | 0.111 | – | – | –
[3], 298.15 K, x1 = 0.8638 | 0.0853 | – | – | –
[3], 298.15 K, x1 = 0.8942 | 0.0674 | – | – | –
[3], 298.15 K, x1 = 0.9269 | 0.0492 | – | – | –
[3], 298.15 K, x1 = 0.9621 | 0.0265 | – | – | –
[3], 308.15 K, x1 = 0.0421 | 0.0507 | – | – | –
[3], 308.15 K, x1 = 0.0808 | 0.0872 | – | – | –
[3], 308.15 K, x1 = 0.1234 | 0.122 | – | – | –
[3], 308.15 K, x1 = 0.1495 | 0.14 | – | – | –
[3], 308.15 K, x1 = 0.2087 | 0.167 | – | – | –
[3], 308.15 K, x1 = 0.2601 | 0.183 | – | – | –
[3], 308.15 K, x1 = 0.3454 | 0.198 | – | – | –
[3], 308.15 K, x1 = 0.4128 | 0.199 | – | – | –
[3], 308.15 K, x1 = 0.5134 | 0.193 | – | – | –
[3], 308.15 K, x1 = 0.612 | 0.175 | – | – | –
[3], 308.15 K, x1 = 0.6784 | 0.16 | – | – | –
[3], 308.15 K, x1 = 0.7599 | 0.129 | – | – | –
[3], 308.15 K, x1 = 0.8084 | 0.111 | – | – | –
[3], 308.15 K, x1 = 0.8636 | 0.082 | – | – | –
[3], 308.15 K, x1 = 0.8941 | 0.0698 | – | – | –
[3], 308.15 K, x1 = 0.9268 | 0.049 | – | – | –
[3], 308.15 K, x1 = 0.962 | 0.027 | – | – | –
